{"source": "ChEMBL document CHEMBL5465560", "about": "“Selectivity Literature for EUbOPEN Chemogenomic Library” (2024)", "key": {"[1]": {"target": "T1, Non-receptor tyrosine-protein kinase TNK1 (Homo sapiens) (UniProt Q13470)", "T1 sequence (whole entry)": "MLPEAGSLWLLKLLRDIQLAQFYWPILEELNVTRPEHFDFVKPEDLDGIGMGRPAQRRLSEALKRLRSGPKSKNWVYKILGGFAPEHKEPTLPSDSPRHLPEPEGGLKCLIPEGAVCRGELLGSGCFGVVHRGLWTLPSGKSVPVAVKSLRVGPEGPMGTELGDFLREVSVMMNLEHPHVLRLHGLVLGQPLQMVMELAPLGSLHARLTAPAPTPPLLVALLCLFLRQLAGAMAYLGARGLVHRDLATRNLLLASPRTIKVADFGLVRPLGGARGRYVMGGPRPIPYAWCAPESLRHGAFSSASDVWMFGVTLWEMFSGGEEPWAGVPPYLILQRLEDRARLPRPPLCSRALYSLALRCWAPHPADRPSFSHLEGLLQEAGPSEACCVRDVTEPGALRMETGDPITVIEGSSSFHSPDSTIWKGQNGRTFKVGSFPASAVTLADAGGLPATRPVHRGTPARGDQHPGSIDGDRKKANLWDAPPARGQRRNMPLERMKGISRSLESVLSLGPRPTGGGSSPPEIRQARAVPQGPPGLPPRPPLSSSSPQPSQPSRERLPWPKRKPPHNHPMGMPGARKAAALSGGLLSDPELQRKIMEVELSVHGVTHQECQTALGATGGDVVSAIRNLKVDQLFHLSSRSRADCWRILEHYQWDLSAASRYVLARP", "experiment": "Selectivity interaction (KinomeScan (DiscoverX)) EUB0001619a TNK1", "conditions": "at 1 µM"}, "[2]": {"target": "Serine/threonine-protein kinase PLK3 (Homo sapiens, UniProt Q9H4B4)", "sequence (Q9H4B4 whole entry, looked up)": "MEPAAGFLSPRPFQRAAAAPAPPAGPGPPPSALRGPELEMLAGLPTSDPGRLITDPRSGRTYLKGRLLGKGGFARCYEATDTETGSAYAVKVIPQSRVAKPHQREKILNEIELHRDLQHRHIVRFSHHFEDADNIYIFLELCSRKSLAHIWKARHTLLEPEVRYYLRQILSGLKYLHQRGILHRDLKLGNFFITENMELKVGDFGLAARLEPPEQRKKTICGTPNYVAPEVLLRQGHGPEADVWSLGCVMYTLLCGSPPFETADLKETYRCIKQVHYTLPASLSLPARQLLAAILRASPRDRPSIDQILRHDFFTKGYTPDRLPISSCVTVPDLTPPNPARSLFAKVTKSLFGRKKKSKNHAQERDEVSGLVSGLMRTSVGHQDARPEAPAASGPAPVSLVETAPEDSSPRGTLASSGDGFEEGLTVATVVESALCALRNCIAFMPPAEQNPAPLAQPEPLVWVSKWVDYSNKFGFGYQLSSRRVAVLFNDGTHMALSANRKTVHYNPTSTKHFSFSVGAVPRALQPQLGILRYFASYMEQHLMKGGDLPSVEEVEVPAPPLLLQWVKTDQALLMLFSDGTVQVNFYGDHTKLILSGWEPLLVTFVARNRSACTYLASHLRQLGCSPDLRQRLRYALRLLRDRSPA", "experiment": "Selectivity interaction (KinomeScan (DiscoverX)) EUB0000607a PLK3", "conditions": "at 10 µM"}, "[3]": {"target": "Tyrosine-protein kinase Yes (Homo sapiens) (UniProt P07947)", "sequence (P07947 2-543 limits assumed)": "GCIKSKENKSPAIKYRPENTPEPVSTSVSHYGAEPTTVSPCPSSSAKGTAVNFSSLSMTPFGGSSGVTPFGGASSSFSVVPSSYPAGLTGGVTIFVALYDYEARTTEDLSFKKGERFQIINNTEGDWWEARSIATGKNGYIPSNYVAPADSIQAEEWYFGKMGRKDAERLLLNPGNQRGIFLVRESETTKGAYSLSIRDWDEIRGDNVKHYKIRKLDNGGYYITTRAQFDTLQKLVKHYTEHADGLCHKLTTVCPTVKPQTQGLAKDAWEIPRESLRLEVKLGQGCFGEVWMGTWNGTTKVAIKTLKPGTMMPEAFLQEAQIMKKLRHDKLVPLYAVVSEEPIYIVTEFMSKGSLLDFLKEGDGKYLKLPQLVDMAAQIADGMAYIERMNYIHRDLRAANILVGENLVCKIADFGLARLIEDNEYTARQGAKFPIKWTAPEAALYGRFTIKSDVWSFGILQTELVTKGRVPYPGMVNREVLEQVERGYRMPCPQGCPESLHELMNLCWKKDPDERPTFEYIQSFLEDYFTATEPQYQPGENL", "experiment": "Selectivity interaction (KinomeScan (DiscoverX)) EUB0000607a YES1", "conditions": "at 10 µM"}, "[4]": {"target": "T2, Peripheral plasma membrane protein CASK (Homo sapiens) (UniProt O14936)", "T2 sequence (whole entry)": "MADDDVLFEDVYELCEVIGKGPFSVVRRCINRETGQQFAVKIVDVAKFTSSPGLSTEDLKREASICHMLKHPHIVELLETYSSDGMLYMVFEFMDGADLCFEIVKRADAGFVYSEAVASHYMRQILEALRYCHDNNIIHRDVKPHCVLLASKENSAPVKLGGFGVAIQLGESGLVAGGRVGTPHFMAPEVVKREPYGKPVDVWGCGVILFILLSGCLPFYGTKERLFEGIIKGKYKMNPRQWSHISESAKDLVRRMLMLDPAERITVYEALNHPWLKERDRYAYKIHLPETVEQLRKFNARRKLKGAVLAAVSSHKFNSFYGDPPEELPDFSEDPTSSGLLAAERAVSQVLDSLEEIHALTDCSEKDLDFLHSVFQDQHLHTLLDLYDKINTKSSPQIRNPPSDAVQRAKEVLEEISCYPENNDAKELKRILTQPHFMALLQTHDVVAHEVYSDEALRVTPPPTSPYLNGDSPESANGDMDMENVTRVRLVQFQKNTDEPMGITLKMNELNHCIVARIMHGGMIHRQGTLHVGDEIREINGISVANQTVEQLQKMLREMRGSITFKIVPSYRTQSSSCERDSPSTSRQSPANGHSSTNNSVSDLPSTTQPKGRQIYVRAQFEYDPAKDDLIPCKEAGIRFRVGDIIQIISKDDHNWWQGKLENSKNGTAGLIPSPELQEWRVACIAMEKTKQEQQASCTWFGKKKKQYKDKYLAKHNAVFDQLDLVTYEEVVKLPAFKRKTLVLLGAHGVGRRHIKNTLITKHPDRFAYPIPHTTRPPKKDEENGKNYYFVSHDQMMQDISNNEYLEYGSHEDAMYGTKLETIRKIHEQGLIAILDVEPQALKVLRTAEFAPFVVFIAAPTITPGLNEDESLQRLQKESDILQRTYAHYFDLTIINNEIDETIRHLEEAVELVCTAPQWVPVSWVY", "experiment": "Selectivity interaction (Kinase panel (DSF assay)) EUB0001558a CASK"}, "[5]": {"target": "T3, Tyrosine-protein kinase Mer (Homo sapiens) (UniProt Q12866)", "T3 sequence (whole entry)": "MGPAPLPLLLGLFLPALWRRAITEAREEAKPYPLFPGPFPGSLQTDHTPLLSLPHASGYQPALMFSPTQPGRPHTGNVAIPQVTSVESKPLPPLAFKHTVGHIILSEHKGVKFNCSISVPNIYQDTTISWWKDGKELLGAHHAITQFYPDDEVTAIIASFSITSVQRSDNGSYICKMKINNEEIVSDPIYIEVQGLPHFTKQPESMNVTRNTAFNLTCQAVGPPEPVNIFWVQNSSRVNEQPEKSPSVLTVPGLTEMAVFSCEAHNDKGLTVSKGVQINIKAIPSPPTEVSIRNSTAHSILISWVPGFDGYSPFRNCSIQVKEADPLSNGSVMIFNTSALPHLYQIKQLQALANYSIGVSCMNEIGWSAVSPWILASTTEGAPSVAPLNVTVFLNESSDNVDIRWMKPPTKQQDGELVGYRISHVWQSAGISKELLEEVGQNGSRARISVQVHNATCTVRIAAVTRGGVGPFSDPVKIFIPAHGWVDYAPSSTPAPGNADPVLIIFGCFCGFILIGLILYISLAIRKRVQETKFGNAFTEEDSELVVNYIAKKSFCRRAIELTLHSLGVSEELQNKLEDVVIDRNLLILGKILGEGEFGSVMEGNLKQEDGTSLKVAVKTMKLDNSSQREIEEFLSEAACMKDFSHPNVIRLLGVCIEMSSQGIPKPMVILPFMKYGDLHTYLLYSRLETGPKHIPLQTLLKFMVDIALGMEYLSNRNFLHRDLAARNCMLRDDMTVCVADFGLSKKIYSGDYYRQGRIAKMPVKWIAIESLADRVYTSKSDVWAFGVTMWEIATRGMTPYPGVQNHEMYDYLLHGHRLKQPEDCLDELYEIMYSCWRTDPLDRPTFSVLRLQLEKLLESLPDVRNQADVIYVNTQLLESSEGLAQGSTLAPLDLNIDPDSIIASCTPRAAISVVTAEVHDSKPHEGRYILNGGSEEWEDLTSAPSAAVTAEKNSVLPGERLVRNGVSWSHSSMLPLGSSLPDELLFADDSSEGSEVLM", "experiment": "Selectivity interaction (Kinase panel (DSF assay)) EUB0001558a MERTK"}, "[6]": {"target": "Dual specificity tyrosine-phosphorylation-regulated kinase 1B (Homo sapiens, UniProt Q9Y463)", "sequence (Q9Y463 whole entry, looked up)": "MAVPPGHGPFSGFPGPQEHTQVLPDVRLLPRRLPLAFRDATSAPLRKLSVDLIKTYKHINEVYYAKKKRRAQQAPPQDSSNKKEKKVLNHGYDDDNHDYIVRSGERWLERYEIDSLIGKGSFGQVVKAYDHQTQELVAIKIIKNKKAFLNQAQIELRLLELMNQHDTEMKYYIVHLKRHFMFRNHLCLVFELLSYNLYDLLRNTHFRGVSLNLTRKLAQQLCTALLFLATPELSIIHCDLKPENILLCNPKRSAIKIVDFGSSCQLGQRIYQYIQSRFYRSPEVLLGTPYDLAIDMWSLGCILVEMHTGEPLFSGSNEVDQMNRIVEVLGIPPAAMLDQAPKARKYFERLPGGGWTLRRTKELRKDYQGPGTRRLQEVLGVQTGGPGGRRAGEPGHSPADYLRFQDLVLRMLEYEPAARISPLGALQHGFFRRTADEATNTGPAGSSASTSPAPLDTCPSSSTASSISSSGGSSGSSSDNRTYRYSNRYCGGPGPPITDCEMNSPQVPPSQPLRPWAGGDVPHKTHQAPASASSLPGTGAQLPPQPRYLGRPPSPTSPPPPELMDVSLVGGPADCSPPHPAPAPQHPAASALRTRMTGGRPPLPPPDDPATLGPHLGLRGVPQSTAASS", "experiment": "Selectivity interaction (KinomeScan (DiscoverX)) EUB0000655a DYRK1B", "conditions": "at 10 µM"}}}
{"smiles": "N#Cc1cccc(-c2c[nH]c3ncnc(N4CCOCC4)c23)c1", "values": [{"measurement": "% of control", "setting": "[1]", "value": 32, "unit": "%"}]}
{"smiles": "CNC(=O)Nc1ccc(-c2nc(N3CC4CCC(C3)O4)c3cnn(C4CCC5(CC4)OCCO5)c3n2)cc1", "values": [{"measurement": "% of control", "setting": "[2]", "value": 100, "unit": "%"}, {"measurement": "% of control", "setting": "[3]", "value": 97, "unit": "%"}]}
{"smiles": "CC(C)(O)[C@H](F)CN1Cc2cc(NC(=O)c3cnn4cccnc34)c(N3CCOCC3)cc2C1=O", "values": [{"measurement": "dTM", "setting": "[4]", "value": -0.5, "unit": "K"}, {"measurement": "dTM", "setting": "[5]", "value": 1.7, "unit": "K"}]}
{"smiles": "CN(C)CCOc1ccc(-c2nc(-c3ccncc3)c(-c3ccc4c(c3)CC/C4=N\\O)[nH]2)cc1", "values": [{"measurement": "% of control", "setting": "[6]", "value": 100, "unit": "%"}]}
